Data as given in patent US11001564B2, “Substituted chromane-8-carboxamide compounds and analogues thereof, and methods using same” (priority 2016, dated 2021).
Where a name gives a salt, the structure may show the parent alone.

What follows are compounds tested on HBV rcDNA in HepDE19 cells (assay: HepDE19 assay with bDNA quantitation of HBV rcDNA). Settings: Hepatitis B virus, HepDE19, 168 h, HepDE19 cells, 7 day incubation, rcDNA by Quantigene 2.0 bDNA assay; read-out: DE-19 bDNA EC50.
Assay type: cell-based, hepatitis B virus (HBV)
Outline: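 HepG2-derived HepDE19 cells, switched to Tet-free medium, were exposed 7 days at 37 °C to compound (8-point ½-log series from 25 μM, 0.5% DMSO). HBV rcDNA measured by bDNA assay with HBV-specific probes; EC50/EC90 by 4-parameter fit. CC50 from CellTiter-Glo ATP on replicate plates after 4 days.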
For `O=C1CC[C@@H](COC(=O)N[C@H]2CCOc3c(C(=O)Nc4ccc(F)c(F)c4)cccc32)N1` [Compound 118, ((S)-5-Oxopyrrolidin-2-yl)methyl ((S)-8-((3,4-difluorophenyl)carbamoyl)chroman-4-yl)carbamate], the EC50 was 3600 nM.
`O=C1CC[C@H](COC(=O)N[C@H]2CCOc3c(C(=O)Nc4ccc(F)c(F)c4)cccc32)N1` [Compound 119, ((R)-5-Oxopyrrolidin-2-yl)methyl ((S)-8-((3,4-difluorophenyl)carbamoyl)chroman-4-yl)carbamate] showed an EC50 of 8700 nM.
For `Cc1cc(NC(=O)c2ccc(F)c3c2OCC[C@@H]3NC(=O)OCc2ncccn2)ccc1F` [Compound 120, Pyrimidin-2-ylmethyl (S)-(5-fluoro-8-((4-fluoro-3-methylphenyl)carbamoyl)chroman-4-yl)carbamate], the EC50 was 540 nM.
In the case of `CC(=O)N[C@H]1CCOc2c(C(=O)Nc3ccc(F)c(C)c3)ccc(F)c21` [Compound 121, (4S)-4-Acetamido-5-fluoro-N-(4-fluoro-3-methylphenyl)-3,4-dihydro-2H-1-benzopyran-8-carboxamide], the EC50 is reported as 620 nM.
Work on `O=C(N[C@H]1CCOc2c(C(=O)Nc3ccc(F)c(F)c3)c(F)cc(F)c21)OCc1ccccn1` [Compound 124, pyridin-2-ylmethyl (S)-(8-((3,4-difluorophenyl)carbamoyl)-5,7-difluorochroman-4-yl)carbamate] yielded an EC50 of 25000 nM.
For `CN1CCC(COC(=O)N[C@H]2CCOc3c(C(=O)Nc4ccc(F)c(F)c4)cccc32)C1` (stereo partly drawn) [Compound 127, (1-methylpyrrolidin-3-yl)methyl ((S)-8-((3,4-difluorophenyl)carbamoyl)chroman-4-yl)carbamate], the EC50 was 24000 nM.
`COC(=O)N[C@H]1CCOc2c(C(=O)Nc3ccc(F)c(OC)c3)ccc(F)c21` [Compound 128, Methyl (S)-(5-fluoro-8-((4-fluoro-3-methoxyphenyl)carbamoyl)chroman-4-yl)carbamate] gave an EC50 of 1200 nM.
In the case of `COCC(=O)N[C@H]1CCOc2c(C(=O)Nc3ccc(F)c(C)c3)ccc(F)c21` [Compound 129, (4S)-5-Fluoro-N-(4-fluoro-3-methylphenyl)-4-(2-methoxyacetamido)-3,4-dihydro-2H-1-benzopyran-8-carboxamide], the EC50 is reported as 2500 nM.
Work on `Cc1cc(NC(=O)c2ccc(F)c3c2OCC[C@@H]3NC(=O)OCc2ccncn2)ccc1F` [Compound 130, Pyrimidin-4-ylmethyl (S)-(5-fluoro-8-((4-fluoro-3-methylphenyl)carbamoyl)chroman-4-yl)carbamate] yielded an EC50 of 620 nM.
`CN(C)C(=O)CC1CCOc2c(C(=O)Nc3ccc(F)c(F)c3)cccc21` (centres unmarked) [Compound 133, N-(3,4-difluorophenyl)-4-(2-(dimethylamino)-2-oxoethyl) chromane-8-carboxamide] showed an EC50 of 14000 nM.
For `O=C(N[C@H]1CCOc2c(C(=O)Nc3ccc(F)c(F)c3)ccc(Cl)c21)OCc1ccccn1` [Compound 134, Pyridin-2-ylmethyl (S)-(5-chloro-8-((3,4-difluorophenyl)carbamoyl)chroman-4-yl)carbamate], the EC50 was 1300 nM.
In the case of `COC(=O)N[C@H]1CCOc2c(C(=O)Nc3ccnc(C)c3)ccc(F)c21` [Compound 135, methyl (S)-(5-fluoro-8-((2-methylpyridin-4-yl)carbamoyl)chroman-4-yl)carbamate], the EC50 is reported as 9700 nM.
`Cc1cc(NC(=O)c2ccc(F)c3c2OCC[C@@H]3NC(=O)OC[C@H]2CCC(=O)N2)ccc1F` [Compound 136, ((R)-5-Oxopyrrolidin-2-yl)methyl ((S)-5-fluoro-8-((4-fluoro-3-methylphenyl)carbamoyl)chroman-4-yl)carbamate] gave an EC50 of 1200 nM.
`Cc1cc(NC(=O)c2ccc(F)c3c2OCC[C@@H]3NC(=O)OC[C@@H]2CCC(=O)N2)ccc1F` [Compound 137, ((S)-5-Oxopyrrolidin-2-yl)methyl ((S)-5-fluoro-8-((4-fluoro-3-methylphenyl)carbamoyl)chroman-4-yl)carbamate] gave an EC50 of 900 nM.
In the case of `Cc1cc(NC(=O)c2ccc(F)c3c2OCC[C@@H]3NC(=O)OCCc2ccccn2)ccc1F` [Compound 138, 2-(Pyridin-2-yl)ethyl (S)-(5-fluoro-8-((4-fluoro-3-methylphenyl)carbamoyl)chroman-4-yl)carbamate], the EC50 is reported as 600 nM.
With `Cc1cc(NC(=O)c2ccc(F)c3c2OCC[C@@H]3NC(=O)OC[C@H]2CCCC(=O)N2)ccc1F` [Compound 142, ((R)-6-Oxopiperidin-2-yl)methyl ((S)-5-fluoro-8-((4-fluoro-3-methylphenyl)carbamoyl)chroman-4-yl)carbamate] the EC50 was 730 nM.
For `Cc1cc(NC(=O)c2ccc(F)c3c2OCC[C@@H]3NC(=O)OCCN2CCCC2=O)ccc1F` [Compound 143, 2-(2-Oxopyrrolidin-1-yl)ethyl (S)-(5-fluoro-8-((4-fluoro-3-methylphenyl)carbamoyl)chroman-4-yl)carbamate], the EC50 was 1200 nM.
Work on `CC(=O)NCCOC(=O)N[C@H]1CCOc2c(C(=O)Nc3ccc(F)c(C)c3)ccc(F)c21` [Compound 146, 2-Acetamidoethyl (S)-(5-fluoro-8-((4-fluoro-3-methylphenyl)carbamoyl)chroman-4-yl)carbamate] yielded an EC50 of 610 nM.
Work on `Cc1cc(NC(=O)c2ccc(F)c3c2OCC[C@@H]3NC(=O)OC[C@@H]2CC(=O)N2)ccc1F` [Compound 147, ((S)-4-Oxoazetidin-2-yl)methyl ((S)-5-fluoro-8-((4-fluoro-3-methylphenyl)carbamoyl)chroman-4-yl)carbamate] yielded an EC50 of 840 nM.
`COC(=O)N[C@H]1CCOc2c(C(=O)Nc3ccc(F)c(F)c3)cc(N)cc21` [Compound 148, Methyl (S)-(6-amino-8-((3,4-difluorophenyl)carbamoyl)chroman-4-yl)carbamate] was tested, and the EC50 was 6400 nM.
For `CNC(=O)N[C@H]1CCOc2c(C(=O)Nc3ccc(F)c(F)c3)cc(N)cc21` [Compound 149, (S)-6-Amino-N-(3,4-difluorophenyl)-4-(3-methylureido)chromane-8-carboxamide], the EC50 was 20000 nM.
Compound `Cc1cc(NC(=O)c2ccc(F)c3c2OCC[C@@H]3NC(=O)CCc2ccccn2)ccc1F` [Compound 151, (S)-5-Fluoro-N-(4-fluoro-3-methylphenyl)-4-(3-(pyridin-2-yl)propanamido)chromane-8-carboxamide] has an EC50 of 560 nM.
In the case of `Cc1cc(NC(=O)c2ccc(F)c3c2OCC[C@@H]3NC(=O)NCCC(=O)O)ccc1F` [Compound 152, (S)-3-(3-(5-Fluoro-8-((4-fluoro-3-methylphenyl)carbamoyl)chroman-4-yl)ureido)propanoic acid], the EC50 is reported as 15000 nM.
`O=C(N[C@H]1CCOc2c(C(=O)Nc3ccc(F)c(Cl)c3)ccc(F)c21)OCCc1ccccn1` [Compound 153, 2-(Pyridin-2-yl)ethyl (S)-(8-((3-chloro-4-fluorophenyl)carbamoyl)-5-fluorochroman-4-yl)carbamate] gave an EC50 of 530 nM.
`O=C1C[C@@H](COC(=O)N[C@H]2CCOc3c(C(=O)Nc4ccc(F)c(Cl)c4)ccc(F)c32)N1` [Compound 154, ((S)-4-Oxoazetidin-2-yl)methyl ((S)-8-((3-chloro-4-fluorophenyl)carbamoyl)-5-fluorochroman-4-yl)carbamate] gave an EC50 of 1100 nM.
Work on `O=C1CC[C@H](COC(=O)N[C@H]2CCOc3c(C(=O)Nc4ccc(F)c(Cl)c4)ccc(F)c32)N1` [Compound 155, ((R)-5-Oxopyrrolidin-2-yl)methyl ((S)-8-((3-chloro-4-fluorophenyl)carbamoyl)-5-fluorochroman-4-yl)carbamate] yielded an EC50 of 1200 nM.
Work on `O=C1CC[C@@H](COC(=O)N[C@H]2CCOc3c(C(=O)Nc4ccc(F)c(Cl)c4)ccc(F)c32)N1` [Compound 156, ((S)-5-Oxopyrrolidin-2-yl)methyl ((S)-8-((3-chloro-4-fluorophenyl)carbamoyl)-5-fluorochroman-4-yl)carbamate] yielded an EC50 of 740 nM.
With `Nc1cc(C(=O)Nc2ccc(F)c(F)c2)c2c(c1)[C@@H](NC(=O)OCc1ccccn1)CCO2` [Compound 157, Pyridin-2-ylmethyl (S)-(6-amino-8-((3,4-difluorophenyl)carbamoyl)chroman-4-yl)carbamate] the EC50 was 11000 nM.
For `CC(C)(C)OC(=O)N[C@H]1CCOc2c(C(=O)Nc3ccc(F)c(Cl)c3)ccc(F)c21` [Compound 158, tert-Butyl (S)-(8-((3-chloro-4-fluorophenyl)carbamoyl)-5-fluorochroman-4-yl)carbamate], the EC50 was 5800 nM.

Same assay, conditions: Hepatitis B virus, HepDE19, 168 h, read-out: DE-19 bDNA EC50, HepDE19 cells, 7 day incubation, rcDNA by Quantigene 2.0 bDNA assay
In the case of `COC(=O)N[C@H]1CCOc2c(C(=O)Nc3ccc(F)c(C)c3)ccc(F)c21` [Compound 117, Methyl (5-fluoro-8-((4-fluoro-3-methylphenyl)carbamoyl)chroman-4-yl)carbamate], the EC50 is reported as 220 nM.
In the case of `CNC(=O)N[C@H]1CCOc2c(C(=O)Nc3ccc(F)c(C)c3)ccc(F)c21` [Compound 122, (S)-5-fluoro-N-(4-fluoro-3-methylphenyl)-4-(3-methylureido)chromane-8-carboxamide], the EC50 is reported as 320 nM.
With `O=C(N[C@H]1CCOc2c(C(=O)Nc3ccc(F)c(F)c3)cccc21)OCc1ncccc1Cl` [Compound 123, (3-Chloropyridin-2-yl)methyl (S)-(8-((3,4-difluorophenyl)carbamoyl)chroman-4-yl)carbamate hydrochloride] the EC50 was 8800 nM.
In the case of `COC(=O)N[C@H]1CCOc2c(C(=O)Nc3ccc(F)c(F)c3)ccc(Cl)c21` [Compound 125, Methyl (S)-(5-chloro-8-((3,4-difluorophenyl)carbamoyl)chroman-4-yl)carbamate], the EC50 is reported as 2300 nM.
In the case of `CNC(=O)N[C@H]1CCOc2c(C(=O)Nc3ccc(F)c(F)c3)ccc(Cl)c21` [Compound 126, (S)-5-chloro-N-(3,4-difluorophenyl)-4-(3-methylureido)chromane-8-carboxamide], the EC50 is reported as 740 nM.
With `Cc1cc(NC(=O)c2ccc(F)c3c2OCC[C@@H]3NC(=O)NCc2ccccn2)ccc1F` [Compound 150, (S)-5-Fluoro-N-(4-fluoro-3-methylphenyl)-4-(3-(pyridin-2-ylmethyl)ureido)chromane-8-carboxamide] the EC50 was 1200 nM.
